Reference: patent US20090018120A1, “AMIDINE DERIVATIVES AND THEIR APPLICATIONS AS A MEDICAMENT” (priority 2005, published 2009)
Where “and” joins values, the source holds several entries; their conditions need not be identical. Equal values may be shown once. Read-outs that look alike come from different tables or passages of the source.

What was measured:
[1] = test system: neuromast ciliated cells of Zebrafish; test: Ototoxicity induced by gentamycin in Zebrafish: protection of neuromast ciliated cells (DASPEI staining); format: in vivo; conditions: for EC50: Danio rerio, 0, 25, 50, 100 μM, co-treatment with gentamycin 1 μg/ml, concentration which allows 50% of stained cells to be visualized, read-out: EC50 μM (survival of the ciliated cells in % of the control); for control % (% staining signal of the ciliated cells): positive control = 100%
From the text: Ototoxicity Induced after a Treatment with Gentamycin: Protective Effect of the Compounds According to the Invention
Principle of the test: gentamycin and other aminoglycosides cause damage to ciliated cells and a hearing loss in humans. Zebrafish have sensory organs known as neuromasts on the surface of their body. These neuromast ciliated cells are structurally and functionally similar to the internal ciliated cells of the human ear. In these fish, the neuromast ciliated cells can be stained with DASPEI (2,4-dimethyl-aminostyryl-N-ethyl pyridinium iodide) and this staining reflects the number of functional ciliated cells.
Damage to the internal ciliated cells is induced in the Zebrafish with a gentamycin treatment. In order to test the protective effect of the compound to be tested on ciliated cells damaged by gentamycin, the compound was administered as a co-treatment with gentamycin. The internal ciliated cells are then stained and quantified.
The study is carried out on 5-day old fish, incubated with 1 μg/ml of gentamycin for 24 hours in the presence or the absence of the compound. Controls are carried out in parallel; vehicle alone (1% DMSO; positive control). Fish treated with gentamycin only are the negative controls.
The EC50 (concentration of the substance to be tested which protects 50% of the cells from cell death) is calculated from this concentration-effect.
The DASPEI staining is carried out to visualize the ciliated cells in vivo (n=6 per group). Morphometric analysis is used to quantify the staining signal of the ciliated cells. The DASPEI staining signal of the positive controls was defined as 100%.
Positive control (Zebrafish-1% DMSO); Negative control (Zebrafish-1% DMSO-gentamycin 1 μg/ml) and effect of the products (Zebrafish-1% DMSO-gentamycin-compound). Experiment carried out on 6 animals per group.

calpain = test: Effect in situ on the calpain enzymatic activity of human skeletal cells (SKM), maitotoxin-activated, Suc-Leu-Tyr-AMC substrate; format: cell-based; conditions: read-out: IC50 (concentration which inhibits 50% of the enzyme activity), SKM myotubes, 3 h at 30° C.
Protocol: Effect In Situ of the Compounds According to the Invention on the Calpain Enzymatic Activity of Human Skeletal Cells (SKM)
The principle of the test is the following: maitotoxin is a toxin which causes the opening of the calcium channels of cells. The resulting intra-cellular flow of calcium is at the origin of the death of the cell. During this process of cell death, a cysteine-dependent protease, calpain, is activated. The test consists of incubating the cells in the presence of maitotoxin, in order to activate the calpain enzyme, and adding a calpain substrate which fluoresces when the enzyme cleaves this substrate. Finally, calpain inhibitors are tested.
The myoblasts are seeded at 2500 cells per well in 96-well plates in a DMEM 10% FCS (foetal calf serum) culture medium supplemented with amphotericin B, human recombinant epidermal growth factor and dexamethasone. Three days after seeding, the cells have adhered to the bottom of the well, the differentiation of the cells to myotubes is induced by adding 100 μl of DMEM F12 medium containing 2% horse serum. […] The background noise is determined by preparing additional control wells without MTX. […] The plates are stirred, the fluorescence is read at 380/460 nm using a so-called Victor device at time zero. […]
The fluorescence values make it possible to calculate a concentration-effect for each of the compounds. […]

[2] = test system: human skeletal cells (SKM); test: Protective effect on cell death induced by maitotoxin on human skeletal cells (SKM), WST-1; format: cell-based; conditions: read-out: EC50 (concentration which protects 50% of the cells from cell death)
From the text: Protective Effect of the Compounds According to the Invention on Cell Death Induced by Maitotoxin on Human Skeletal Cells (SKM)
The principle of the test is the following: maitotoxin is a toxin which causes the opening of the calcium channels of cells. The resulting intra-cellular flow of calcium is at the origin of the death of the cell. During this process of cell death, a cysteine-dependent protease, calpain, is activated, and an abundance of free radicals is produced. The test consists of incubating the cells in the presence of the molecules to be tested, in order to delay or inactivate cell death and thus determine the protective effect.
The myoblasts are seeded at 2500 cells per well in 96-well plates in a DMEM 10% FCS (foetal calf serum) culture medium supplemented with amphotericin B, human recombinant epidermal growth factor and dexamethasone. […]
After an incubation time of 3 h or 96 h, the culture medium is replaced by a DMEM 10% FCS medium supplemented by 10% WST-1, WST-1 (Roche, reference 1644807) is a reagent which stains metabolically active cells, i.e. live cells. […] Then the number of live cells is determined using a Perkin-Elmer Wallac Envision 2101 device by reading the absorbance at 450 nm. The concentration-effect of the products on the cell survival fraction is then calculated. […]

[3] = compound 50 μM as co-treatment with gentamycin 1 μg/ml

Molecule: CC(=O)OC1OCC[C@@H]1NC(=O)[C@H](CC(C)C)NC(=N)c1ccc2c(c1)Nc1ccccc1S2.I (stereo partly drawn) [Example 4, (3S)-3-({N-[imino(10H-phenothiazin-2-yl)methyl]-L-leucyl}amino)tetrahydrofuran-2-yl acetate hydroiodide]
- EC50 [1]: 51 µM
- protection of the ciliated cells damaged by the gentamycin treatment [1, 3]: 36.2%
- control % (% staining signal of the ciliated cells) ([1]; compound 50 μM as co-treatment with gentamycin 1 μg/ml, 24 hours, 5-day old fish, acetate hydroiodide): 49% and 49 ± 5%

Molecule: CC(C)C[C@H](NC(=N)c1ccc2c(c1)Nc1ccccc1S2)C(=O)N[C@H]1CCOC1O.I (stereo partly drawn) [Example 5, N^1-[(3S)-2-hydroxytetrahydrofuran-3-yl]-N^2-[imino(10H-phenothiazin-2-yl)methyl]-L-leucinamide hydroiodide]
- IC50 (calpain): < 20 µM
- EC50 [1]: 32 µM
- protection of the ciliated cells damaged by the gentamycin treatment [1, 3]: 40%
- control % (% staining signal of the ciliated cells) ([1]; compound 50 μM as co-treatment with gentamycin 1 μg/ml, 24 hours, 5-day old fish, hydroiodide): 52% and 52 ± 10%

Molecule: C[C@H]1C[C@@H]2[C@H]([C@@H](O)C[C@@]3(C)[C@H]2CC[C@]3(O)C(=O)CO)[C@@]2(C)C=CC(=O)C=C12 [a-methylprednisolone]
- EC50 ([2]; after incubation for 3 hours in the presence of maitotoxin): 354 µM
- EC50 ([2]; after incubation for 96 hours in the presence of maitotoxin): 196 µM

Molecule: Gentamycin [reference compound]
- loss of the ciliated cells following treatment with gentamycin ([1]; gentamycin 1 μg/ml alone, 24 hours): 80%
- control % (% staining signal of the ciliated cells) ([1]; gentamycin 1 μg/ml alone, 24 hours (negative control)): 20 ± 0.6%
- control % (% staining signal of the ciliated cells) ([1]; gentamycin 1 μg/ml alone, 24 hours (negative control), listed as gentamycin): 20%
